The values that follow come from PubChem BioAssay AID330 (DTP/NCI, 2004).

The experiment relates to P388 leukemia ip, CD2F1 mice, survival T/C. Nature of the experiment: NCI In Vivo Anticancer Drug Screen. Data for tumor model P388 Leukemia (intraperitoneal) in CD2F1 (CDF1) mice. The settings on record: endpoint: median survival time, higher = longer survival. Put shortly: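 Mice carrying the transplanted tumor received test compound or vehicle. Survival was recorded in each group, and the value is the treated-group measurement divided by that of the vehicle-treated control group.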

Setting [1] is: dose: 100.0 mg/kg/injection, schedule: Q04DX003 (ip), vehicle: saline with Tween-80.
Where [2] appears, read: dose: 200.0 mg/kg/injection, schedule: Q04DX003 (ip), vehicle: saline with Tween-80.
The mark [3] stands for this setting: dose: 400.0 mg/kg/injection, schedule: Q04DX003 (ip), vehicle: saline with Tween-80.
[4] abbreviates: dose: 12.5 mg/kg/injection, schedule: Q01DX009 (ip), vehicle: saline.
Where [5] appears, read: dose: 25.0 mg/kg/injection, schedule: Q01DX009 (ip), vehicle: saline.
Setting [6] is: dose: 50.0 mg/kg/injection, schedule: Q01DX009 (ip), vehicle: saline.
Setting [7] is: dose: 50.0 mg/kg/injection, schedule: Q01DX005 (ip), vehicle: saline with Tween-80.
The mark [8] stands for this setting: dose: 50.0 mg/kg/injection, schedule: Q01DX005 (ip), vehicle: Klucel (hydroxypropylcellulose) (HPC).
Where [9] appears, read: dose: 100.0 mg/kg/injection, schedule: Q01DX005 (ip), vehicle: Klucel (hydroxypropylcellulose) (HPC).
The mark [10] stands for this setting: dose: 200.0 mg/kg/injection, schedule: Q01DX005 (ip), vehicle: Klucel (hydroxypropylcellulose) (HPC).
The mark [11] stands for this setting: dose: 100.0 mg/kg/injection, schedule: Q01DX005 (ip), vehicle: saline with Tween-80.
[12] abbreviates: dose: 200.0 mg/kg/injection, schedule: Q01DX005 (ip), vehicle: saline with Tween-80.
The mark [13] stands for this setting: dose: 12.5 mg/kg/injection, schedule: Q01DX009 (ip), vehicle: Klucel (hydroxypropylcellulose) (HPC).
Where [14] appears, read: dose: 25.0 mg/kg/injection, schedule: Q01DX009 (ip), vehicle: Klucel (hydroxypropylcellulose) (HPC).

Molecules are shown by their SMILES. “And” between values parts separate entries of the source, which are not always exact repeats. Equal values may be shown once. Inconclusive results and toxic doses are left out.

Regarding `O=c1[nH]c(=O)n(C2CC(O)C(CO)O2)cc1F` (stereo not given), the T/C reads like this: (dose: 10.0 mg/kg/injection, schedule: Q01DX010 (ip), vehicle: saline) 163 % of control; (dose: 12.5 mg/kg/injection, schedule: Q04DX002 (ip), vehicle: water) 108 % of control; (dose: 20.0 mg/kg/injection, schedule: Q01DX009 (ip), vehicle: saline) 155 % of control; (dose: 20.0 mg/kg/injection, schedule: Q01DX010 (ip), vehicle: saline) 181 % of control; (dose: 38.0 mg/kg/injection, schedule: Q01DX009 (ip), vehicle: saline) 160 % of control; (dose: 40.0 mg/kg/injection, schedule: Q01DX009 (ip), vehicle: saline) 117 % of control. For the same compound, the T/C runs as follows: (dose: 40.0 mg/kg/injection, schedule: Q01DX010 (ip), vehicle: saline) 222 % of control; (dose: 49.0 mg/kg/injection, schedule: Q01DX009 (ip), vehicle: saline) 159 % of control and 167 % of control; (dose: 50.0 mg/kg/injection, schedule: Q01DX005 (ip), vehicle: saline) 114 % of control; (dose: 56.0 mg/kg/injection, schedule: Q01DX009 (ip), vehicle: saline) 123 % of control; (dose: 75.0 mg/kg/injection, schedule: Q01DX009 (ip), vehicle: saline) 185 % of control; (dose: 80.0 mg/kg/injection, schedule: Q01DX009 (ip), vehicle: saline) 92 % of control. In addition, the T/C is, setting by setting: (dose: 100.0 mg/kg/injection, schedule: Q01DX001 (ip), vehicle: saline) 110 % of control; (dose: 100.0 mg/kg/injection, schedule: Q01DX005 (ip), vehicle: saline) 98 % of control; (dose: 110.0 mg/kg/injection, schedule: Q01DX009 (ip), vehicle: saline) 103 % of control; (dose: 120.0 mg/kg/injection, schedule: Q01DX009 (ip), vehicle: saline) 81 % of control; (dose: 180.0 mg/kg/injection, schedule: Q01DX009 (ip), vehicle: saline) 83 % of control; (dose: 200.0 mg/kg/injection, schedule: Q01DX001 (ip), vehicle: saline) 111 % of control. The T/C (dose: 200.0 mg/kg/injection, schedule: Q01DX005 (ip), vehicle: saline) is 95 % of control; the T/C (dose: 240.0 mg/kg/injection, schedule: Q04DX002 (ip), vehicle: saline) is 157 % of control; the T/C (dose: 350.0 mg/kg/injection, schedule: Q04DX003 (ip), vehicle: saline) is 168 % of control; the T/C (dose: 400.0 mg/kg/injection, schedule: Q04DX002 (ip), vehicle: saline) was 164 % of control; the T/C (dose: 400.0 mg/kg/injection, schedule: Q04DX003 (ip), vehicle: saline) was 100 % of control.

On to `CCOC(=O)C(C(=O)OCC)c1c[n+]([O-])c2ccccc2c1[N+](=O)[O-]`, for which the T/C (dose: 100.0 mg/kg/injection, schedule: Q01DX009 (ip), vehicle: saline with Tween-80) was 104 % of control; the T/C under setting [1] was 109 % of control; the T/C (dose: 200.0 mg/kg/injection, schedule: Q01DX009 (ip), vehicle: saline with Tween-80) is 100 % of control; the T/C under setting [2] is 104 % of control; the T/C (dose: 400.0 mg/kg/injection, schedule: Q01DX009 (ip), vehicle: saline with Tween-80) was 100 % of control; the T/C under setting [3] is 95 % of control.

For the compound `CC1C(=O)OC2C1CCC1(C)C=C(Cl)C(=O)C3(C)OC213` (stereo not given), the T/C reads like this: (dose: 50.0 mg/kg/injection, schedule: Q04DX002 (ip), vehicle: saline with Tween-80) 100 % of control; (dose: 100.0 mg/kg/injection, schedule: Q04DX002 (ip), vehicle: saline with Tween-80) 100 % of control; (dose: 200.0 mg/kg/injection, schedule: Q04DX002 (ip), vehicle: saline with Tween-80) 100 % of control.

With `CCOP(=O)(OCC)C1CCCN2CCc3c([nH]c4ccccc34)C12` (stereo not given), the T/C under setting [4] is 98 % of control; the T/C under setting [5] was 96 % of control; the T/C under setting [6] is 100 % of control and 89 % of control; the T/C (dose: 200.0 mg/kg/injection, schedule: Q01DX009 (ip), vehicle: saline) is 100 % of control.

Consider `O=S(=O)(OC1=C/[C@H](S(=O)(=O)c2ccccc2)/C=C\[C@H](S(=O)(=O)c2ccccc2)/C=C\1)c1ccccc1`, for which the T/C is 97 % of control (dose: 60.0 mg/kg/injection, schedule: Q01DX005 (ip), vehicle: saline with Tween-80); 93 % of control (dose: 120.0 mg/kg/injection, schedule: Q01DX005 (ip), vehicle: saline with Tween-80); 91 % of control (dose: 240.0 mg/kg/injection, schedule: Q01DX005 (ip), vehicle: saline with Tween-80).

Take `Cc1cc(C)nc(NS(=O)(=O)c2ccc(NC(=O)Nc3cc(F)ccc3F)cc2)n1`: the T/C was 96 % of control (dose: 50.0 mg/kg/injection, schedule: Q01DX009 (ip), vehicle: Klucel (hydroxypropylcellulose) (HPC)); 95 % of control (dose: 100.0 mg/kg/injection, schedule: Q01DX009 (ip), vehicle: Klucel (hydroxypropylcellulose) (HPC)); 91 % of control (dose: 200.0 mg/kg/injection, schedule: Q01DX009 (ip), vehicle: Klucel (hydroxypropylcellulose) (HPC)).

For the compound `COC(=O)C1(O)C(=O)NC2=C1C(=O)c1ccccc1C2=O` (stereo not given), the T/C (dose: 12.5 mg/kg/injection, schedule: Q01DX005 (ip), vehicle: saline with Tween-80) was 99 % of control and 95 % of control; the T/C (dose: 25.0 mg/kg/injection, schedule: Q01DX005 (ip), vehicle: saline with Tween-80) is 98 % of control and 110 % of control; the T/C under setting [7] was 105 % of control.

Consider `COC(=O)/C=C1\CC(C)C2=C(N1)SCC2=O` (stereo not given), for which the T/C is, setting by setting: under setting [8], 105 % of control; under setting [9], 105 % of control; under setting [10], 100 % of control.

As to `CCOC(=O)COc1cc2c(cc1C(C)c1cc(OC)c(OC)c(OC)c1)OCO2` (stereo not given), the T/C is, setting by setting: under setting [7], 100 % of control; under setting [11], 105 % of control; under setting [12], 99 % of control.

For the compound `c1ccc2c(NC3=NCCO3)c3ccccc3nc2c1`, the T/C reads like this: (dose: 3.12 mg/kg/injection, schedule: Q01DX009 (ip), vehicle: Klucel (hydroxypropylcellulose) (HPC)) 95 % of control; (dose: 6.25 mg/kg/injection, schedule: Q01DX009 (ip), vehicle: Klucel (hydroxypropylcellulose) (HPC)) 95 % of control; under setting [13], 103 % of control; under setting [14], 111 % of control.

`COc1cc2c(cc1OC)C1C(C)c3ccc(OC)c(OC)c3CN1CC2` (stereo not given): the T/C reads like this: under setting [4], 88 % of control; under setting [5], 104 % of control; under setting [6], 107 % of control; (dose: 50.0 mg/kg/injection, schedule: Q04DX003 (ip), vehicle: distilled water + Tween-80) 93 % of control; (dose: 100.0 mg/kg/injection, schedule: Q04DX003 (ip), vehicle: distilled water + Tween-80) 87 % of control; (dose: 200.0 mg/kg/injection, schedule: Q04DX003 (ip), vehicle: distilled water + Tween-80) 87 % of control. In addition, the T/C was 94 % of control (dose: 400.0 mg/kg/injection, schedule: Q01DX009 (ip), vehicle: saline) and 91 % of control (dose: 400.0 mg/kg/injection, schedule: Q04DX003 (ip), vehicle: distilled water + Tween-80).

With `CCCCCCCCCCCCCCCCCC[N+]1([O-])CCCC1`, the T/C (dose: 50.0 mg/kg/injection, schedule: Q01DX009 (ip), vehicle: water) was 93 % of control.

On to `CCCCCCCC(=O)Nc1cc(C)ccc1C`, for which the T/C was 100 % of control under setting [1], 86 % of control under setting [2] and 90 % of control under setting [3].

For the compound `CC(Cc1ccccc1)NC(=O)c1ccncc1` (stereo not given), the T/C was 103 % of control under setting [7], 102 % of control under setting [11] and 100 % of control under setting [12].

`CC(CC1CCCCC1)NCCC(c1ccccc1)c1ccccc1` (stereo not given): the T/C by setting is: under setting [13], 116 % of control; under setting [14], 100 % of control.

For the compound `Cc1ccc2c(c1)Nc1ccc(C)cc1C2(C)C`, the T/C was 104 % of control under setting [8], 100 % of control under setting [9] and 97 % of control under setting [10].
